In this experiment the test system is primary rat mixed cortical cells. Description: In vitro myelination assay (MBP positive myelin strands, fold myelin pixels above background). The experiment is classed as cell-based. As to conditions: Rattus norvegicus, relative to baseline of no added compound; for fold induction at 1 µM: 1.0 μM compound, read-out: Fold myelin pixels above background, 1.0 μM; for fold induction at 10 µM: 10.0 μM compound, read-out: Fold myelin pixels above background, 10.0 μM. The procedure, abridged: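 Myelination read as total MBP-immunopositive strand pixels per well, imaged at 10× after fixation on day 14 and expressed relative to untreated wells, at 1.0 and 10.0 μM. Cells: dissociated postnatal day 1 rat cortex, cultured two weeks with compound, re-dosed at days 6 and 10.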

Take `COCc1cc(-n2cnc(Nc3cc(C4CC4)cc(N4CCN(C5COC5)CC4)c3)n2)ncn1` [Compound 353, N-[3-cyclopropyl-5-[4-(oxetan-3-yl)piperazin-1-yl]phenyl]-1-[6-(methoxymethyl)pyrimidin-4-yl]-1,2,4-triazol-3-amine]: the fold induction at 1 µM was 1000 to 10000 and the fold induction at 10 µM is 100 to 1000.

On to `COc1ccc(-n2cnc(Nc3cc(C4CC4)nc(N4CCOCC4)c3)n2)cc1OC` [Compound 354, 2-cyclopropyl-N-[1-(3,4-dimethoxyphenyl)-1,2,4-triazol-3-yl]-6-morpholino-pyridin-4-amine], for which the fold induction at 1 µM is 1 to 10 and the fold induction at 10 µM was 100 to 1000.

For `Cc1cc(Nc2ncn(-c3cc(F)cc(F)c3)n2)cc(N2CC(O)C2)c1` [Compound 355, 1-[3-[[1-(3,5-difluorophenyl)-1,2,4-triazol-3-yl]amino]-5-methyl-phenyl]azetidin-3-ol], the fold induction at 1 µM fell in the range of 10 to 100 and the fold induction at 10 µM lay in the range of 100 to 1000.

With `Cc1cc(Nc2ncn(-c3ccc(C(F)(F)F)cc3)n2)cc(N2CCCC2)c1` [Compound 356, N-(3-methyl-5-pyrrolidin-1-yl-phenyl)-1-[4-(trifluoromethyl)phenyl]-1,2,4-triazol-3-amine], the fold induction at 1 µM is at most 1 and the fold induction at 10 µM was 10 to 100.

Take `FC(F)(F)c1cc(Nc2ncn(-c3cnccn3)n2)cc(N2CCOCC2)c1` [Compound 357, N-[3-morpholino-5-(trifluoromethyl)phenyl]-1-pyrazin-2-yl-1,2,4-triazol-3-amine]: the fold induction at 1 µM was 1 to 10 and the fold induction at 10 µM was in the range of 1 to 10.

On to `CC(C)c1cc(Nc2ncn(-c3cc(F)cc(F)c3)n2)cc(N2CCN(C3COC3)CC2)c1` [Compound 359, 1-(3,5-difluorophenyl)-N-[3-isopropyl-5-[4-(oxetan-3-yl)piperazin-1-yl]phenyl]-1,2,4-triazol-3-amine], for which the fold induction at 1 µM lay in the range of 1000 to 10000 and the fold induction at 10 µM is at most 1.

`Cc1cc(Nc2ncn(-c3cc(F)cc(F)c3)n2)cc(N2CCN(C)C(=O)C2)c1` [Compound 360, 4-[3-[[1-(3,5-difluorophenyl)-1,2,4-triazol-3-yl]amino]-5-methyl-phenyl]-1-methyl-piperazin-2-one]: the fold induction at 1 µM fell in the range of 10 to 100 and the fold induction at 10 µM was in the range of 10 to 100.

As to `CS(=O)(=O)c1cc(Nc2ncn(-c3cccc(F)c3)n2)cc(N2CCN(C3COC3)CC2)c1` [Compound 361, 1-(3-fluorophenyl)-N-[3-methylsulfonyl-5-[4-(oxetan-3-yl)piperazin-1-yl]phenyl]-1,2,4-triazol-3-amine], the fold induction at 1 µM is 100 to 1000 and the fold induction at 10 µM was at most 1.

With `Cc1cc(Nc2ncn(-c3cc(F)cc(F)c3)n2)cc(N2CCNC(C)C2)c1` (stereo not drawn) [Compound 362, 1-(3,5-difluorophenyl)-N-[3-methyl-5-(3-methylpiperazin-1-yl)phenyl]-1,2,4-triazol-3-amine], the fold induction at 1 µM was 100 to 1000 and the fold induction at 10 µM was at most 1.

Take `Cc1cc(Nc2ncn(-c3ccccc3)n2)cc(C2COC2)c1` [Compound 363, N-[3-methyl-5-(oxetan-3-yl)phenyl]-1-phenyl-1,2,4-triazol-3-amine]: the fold induction at 1 µM is 1000 to 10000 and the fold induction at 10 µM lay within 100 to 1000.

With `COCc1cc(-n2cnc(Nc3cc(C)cc(N4CCN(C5COC5)CC4)c3)n2)ncn1` [Compound 364, 1-[6-(methoxymethyl)pyrimidin-4-yl]-N-[3-methyl-5-[4-(oxetan-3-yl)piperazin-1-yl]phenyl]-1,2,4-triazol-3-amine], the fold induction at 1 µM was in the range of 1 to 10 and the fold induction at 10 µM lay in the range of 10 to 100.

For the compound `Cc1cc(Nc2ncn(-c3cc(F)cc(F)c3)n2)cc(N2CCN(C)CC2)n1` [Compound 365, N-[1-(3,5-difluorophenyl)-1,2,4-triazol-3-yl]-2-methyl-6-(4-methylpiperazin-1-yl)pyridin-4-amine], the fold induction at 1 µM lay in the range of 10 to 100 and the fold induction at 10 µM is at most 1.

For `FC(F)(F)c1cc(Nc2ncn(-c3ccccc3)n2)cc(N2CCOCC2)c1` [Compound 366, N-[3-morpholino-5-(trifluoromethyl)phenyl]-1-phenyl-1,2,4-triazol-3-amine], the fold induction at 1 µM lay within 1000 to 10000 and the fold induction at 10 µM was in the range of 1000 to 10000.

For the compound `CN1CCN(c2cc(Nc3ncn(-c4ccccc4)n3)cc(Cl)n2)CC1` [Compound 367, 2-chloro-6-(4-methylpiperazin-1-yl)-N-(1-phenyl-1,2,4-triazol-3-yl)pyridin-4-amine], the fold induction at 1 µM fell in the range of 100 to 1000 and the fold induction at 10 µM is 100 to 1000.

Regarding `CCc1cc(Nc2ncn(-c3cnccn3)n2)cc(N2CCN(C(=O)OC(C)(C)C)CC2)c1` [Compound 368, tert-butyl 4-[3-ethyl-5-[(1-pyrazin-2-yl-1,2,4-triazol-3-yl)amino]phenyl]piperazine-1-carboxylate], the fold induction at 1 µM was in the range of 10 to 100 and the fold induction at 10 µM lay within 1 to 10.

Take `Cc1cc(Nc2ncn(-c3ccccc3)n2)cc(N2C[C@H]3CCN(C)[C@H]3C2)c1` [Compound 369, N-[3-[(3aR,6aR)-1-methyl-2,3,3a,4,6,6a-hexahydropyrrolo[2,3-c]pyrrol-5-yl]-5-methyl-phenyl]-l-phenyl-1,2,4-triazol-3-amine]: the fold induction at 1 µM is 1000 to 10000 and the fold induction at 10 µM is at most 1.

In the case of `CC(=O)N1CCN(c2cc(C)cc(Nc3ncn(-c4cc(F)cc(F)c4)n3)c2)CC1` [Compound 370, 1-[4-[3-[[1-(3,5-difluorophenyl)-1,2,4-triazol-3-yl]amino]-5-methyl-phenyl]piperazin-1-yl]ethanone], the fold induction at 1 µM is 1000 to 10000 and the fold induction at 10 µM fell in the range of 100 to 1000.

`Fc1cc(Nc2ncn(-c3cncc(F)c3)n2)cc(N2CCOCC2)c1` [Compound 371, N-(3-fluoro-5-morpholino-phenyl)-1-(5-fluoro-3-pyridyl)-1,2,4-triazol-3-amine]: the fold induction at 1 µM lay in the range of 1 to 10 and the fold induction at 10 µM was in the range of 100 to 1000.

With `Cc1ccc(-n2cnc(Nc3cc(C)cc(N4CCCC4)c3)n2)cc1` [Compound 372, N-(3-methyl-5-pyrrolidin-1-yl-phenyl)-1-(p-tolyl)-1,2,4-triazol-3-amine], the fold induction at 1 µM lay within 1 to 10 and the fold induction at 10 µM was in the range of 10 to 100.

`COCCN(C)c1cc(F)cc(-n2cnc(Nc3cc(C)cc(N4CCN(C5COC5)CC4)c3)n2)c1` [Compound 373, 1-[3-fluoro-5-[2-methoxyethyl(methyl)amino]phenyl]-N-[3-methyl-5-[4-(oxetan-3-yl)piperazin-1-yl]phenyl]-1,2,4-triazol-3-amine]: the fold induction at 1 µM lay in the range of 100 to 1000 and the fold induction at 10 µM lay in the range of 100 to 1000.

As for `Cc1cc(Nc2ncn(-c3cc(F)cc(F)c3)n2)cc(N2CCOCC2)c1` [Compound 374, 1-(3,5-difluorophenyl)-N-(3-methyl-5-morpholino-phenyl)-1,2,4-triazol-3-amine], the fold induction at 1 µM lay within 100 to 1000 and the fold induction at 10 µM lay within 100 to 1000.

Take `Cc1cc(Nc2ncn(-c3cccc(F)c3)n2)cc(N2CCN(C3(C)COC3)CC2)c1` [Compound 375, 1-(3-fluorophenyl)-N-[3-methyl-5-[4-(3-methyloxetan-3-yl)piperazin-1-yl]phenyl]-1,2,4-triazol-3-amine]: the fold induction at 1 µM lay within 1000 to 10000 and the fold induction at 10 µM was 10 to 100.

Consider `CC(C)(C)c1cc(Nc2ncn(-c3ccccc3)n2)cc(N2CCN(C3COC3)CC2)c1` [Compound 376, N-[3-tert-butyl-5-[4-(oxetan-3-yl)piperazin-1-yl]phenyl]-1-phenyl-1,2,4-triazol-3-amine], for which the fold induction at 1 µM is 100 to 1000 and the fold induction at 10 µM lay in the range of 1 to 10.

`COc1cc(-n2cnc(Nc3cc(C4CC4)cc(N4CCN(C5COC5)CC4)c3)n2)ncn1` [Compound 377, N-[3-cyclopropyl-5-[4-(oxetan-3-yl)piperazin-1-yl]phenyl]-1-(6-methoxypyrimidin-4-yl)-1,2,4-triazol-3-amine]: the fold induction at 1 µM was in the range of 100 to 1000 and the fold induction at 10 µM was in the range of 10 to 100.

Take `Fc1cc(F)cc(-n2cnc(Nc3cc(C4CC4)nc(N4CCCCC4)c3)n2)c1` [Compound 378, 2-cyclopropyl-N-[1-(3,5-difluorophenyl)-1,2,4-triazol-3-yl]-6-(1-piperidyl)pyridin-4-amine]: the fold induction at 1 µM fell in the range of 1 to 10 and the fold induction at 10 µM was 10 to 100.

In the case of `Cc1cc(Nc2ncn(-c3cc(F)cc(F)c3)n2)cc(N2CC(n3cccn3)C2)c1` [Compound 379, 1-(3,5-difluorophenyl)-N-[3-methyl-5-(3-pyrazol-1-ylazetidin-1-yl)phenyl]-1,2,4-triazol-3-amine], the fold induction at 1 µM lay within 10 to 100 and the fold induction at 10 µM was 100 to 1000.

With `Clc1cc(Nc2ncn(-c3ccccc3)n2)cc(N2CCCC2)c1` [Compound 380, N-(3-chloro-5-pyrrolidin-1-yl-phenyl)-1-phenyl-1,2,4-triazol-3-amine], the fold induction at 1 µM was in the range of 100 to 1000 and the fold induction at 10 µM lay within 10 to 100.

In the case of `Cc1cc(Nc2ncn(-c3cncnc3)n2)cc(N2CCN(C)CC2)c1` [Compound 381, N-[3-methyl-5-(4-methylpiperazin-1-yl)phenyl]-1-pyrimidin-5-yl-1,2,4-triazol-3-amine], the fold induction at 1 µM lay within 1 to 10 and the fold induction at 10 µM was in the range of 100 to 1000.

Consider `Cc1cc(Nc2ncn(-c3cccc(F)c3)n2)cc(C2CCN(C3COC3)C2)c1` (stereo not drawn) [Compound 382, 1-(3-fluorophenyl)-N-[3-methyl-5-[1-(oxetan-3-yl)pyrrolidin-3-yl]phenyl]-1,2,4-triazol-3-amine], for which the fold induction at 1 µM fell in the range of 1000 to 10000 and the fold induction at 10 µM lay in the range of 1 to 10.

Take `Cc1cc(Nc2ncn(-c3cc(F)ccc3F)n2)cc(N2CCC(C3COC3)CC2)c1` [Compound 383, 1-(2,5-difluorophenyl)-N-[3-methyl-5-[4-(oxetan-3-yl)-1-piperidyl]phenyl]-1,2,4-triazol-3-amine]: the fold induction at 1 µM was 10 to 100 and the fold induction at 10 µM fell in the range of 1 to 10.

The values are drawn from US10766869B2, “Triazoles for the treatment of demyelinating dieases” (Vertex Pharmaceuticals Incorporated, priority 2015, dated 2020).
